Test results taken from PMC5116814, “Potent, Reversible, and Specific Chemical Inhibitors of Eukaryotic Ribosome Biogenesis” (Cell, 2016).

Experiments:
Assay type in all cases: biochemical
[1] = biological target: T1, Mdn1 (Midasin) (Schizosaccharomyces pombe, UniProt O94248); test: NADH-coupled and radioactive ATPase assays
T1 construct: recombinant full-length Mdn1 (hexahistidine-tagged, insect cells)

[2] = biological target: T1, Mdn1 (Midasin); test: NADH-coupled steady-state ATPase assay, dose-response (saturates at […] inhibition)
[3] = biological target: T1, Mdn1 (Midasin); test: ATP hydrolysis by purified enzyme (radioactive and NADH-coupled ATPase assays)

T1 sequence (O94248 whole entry): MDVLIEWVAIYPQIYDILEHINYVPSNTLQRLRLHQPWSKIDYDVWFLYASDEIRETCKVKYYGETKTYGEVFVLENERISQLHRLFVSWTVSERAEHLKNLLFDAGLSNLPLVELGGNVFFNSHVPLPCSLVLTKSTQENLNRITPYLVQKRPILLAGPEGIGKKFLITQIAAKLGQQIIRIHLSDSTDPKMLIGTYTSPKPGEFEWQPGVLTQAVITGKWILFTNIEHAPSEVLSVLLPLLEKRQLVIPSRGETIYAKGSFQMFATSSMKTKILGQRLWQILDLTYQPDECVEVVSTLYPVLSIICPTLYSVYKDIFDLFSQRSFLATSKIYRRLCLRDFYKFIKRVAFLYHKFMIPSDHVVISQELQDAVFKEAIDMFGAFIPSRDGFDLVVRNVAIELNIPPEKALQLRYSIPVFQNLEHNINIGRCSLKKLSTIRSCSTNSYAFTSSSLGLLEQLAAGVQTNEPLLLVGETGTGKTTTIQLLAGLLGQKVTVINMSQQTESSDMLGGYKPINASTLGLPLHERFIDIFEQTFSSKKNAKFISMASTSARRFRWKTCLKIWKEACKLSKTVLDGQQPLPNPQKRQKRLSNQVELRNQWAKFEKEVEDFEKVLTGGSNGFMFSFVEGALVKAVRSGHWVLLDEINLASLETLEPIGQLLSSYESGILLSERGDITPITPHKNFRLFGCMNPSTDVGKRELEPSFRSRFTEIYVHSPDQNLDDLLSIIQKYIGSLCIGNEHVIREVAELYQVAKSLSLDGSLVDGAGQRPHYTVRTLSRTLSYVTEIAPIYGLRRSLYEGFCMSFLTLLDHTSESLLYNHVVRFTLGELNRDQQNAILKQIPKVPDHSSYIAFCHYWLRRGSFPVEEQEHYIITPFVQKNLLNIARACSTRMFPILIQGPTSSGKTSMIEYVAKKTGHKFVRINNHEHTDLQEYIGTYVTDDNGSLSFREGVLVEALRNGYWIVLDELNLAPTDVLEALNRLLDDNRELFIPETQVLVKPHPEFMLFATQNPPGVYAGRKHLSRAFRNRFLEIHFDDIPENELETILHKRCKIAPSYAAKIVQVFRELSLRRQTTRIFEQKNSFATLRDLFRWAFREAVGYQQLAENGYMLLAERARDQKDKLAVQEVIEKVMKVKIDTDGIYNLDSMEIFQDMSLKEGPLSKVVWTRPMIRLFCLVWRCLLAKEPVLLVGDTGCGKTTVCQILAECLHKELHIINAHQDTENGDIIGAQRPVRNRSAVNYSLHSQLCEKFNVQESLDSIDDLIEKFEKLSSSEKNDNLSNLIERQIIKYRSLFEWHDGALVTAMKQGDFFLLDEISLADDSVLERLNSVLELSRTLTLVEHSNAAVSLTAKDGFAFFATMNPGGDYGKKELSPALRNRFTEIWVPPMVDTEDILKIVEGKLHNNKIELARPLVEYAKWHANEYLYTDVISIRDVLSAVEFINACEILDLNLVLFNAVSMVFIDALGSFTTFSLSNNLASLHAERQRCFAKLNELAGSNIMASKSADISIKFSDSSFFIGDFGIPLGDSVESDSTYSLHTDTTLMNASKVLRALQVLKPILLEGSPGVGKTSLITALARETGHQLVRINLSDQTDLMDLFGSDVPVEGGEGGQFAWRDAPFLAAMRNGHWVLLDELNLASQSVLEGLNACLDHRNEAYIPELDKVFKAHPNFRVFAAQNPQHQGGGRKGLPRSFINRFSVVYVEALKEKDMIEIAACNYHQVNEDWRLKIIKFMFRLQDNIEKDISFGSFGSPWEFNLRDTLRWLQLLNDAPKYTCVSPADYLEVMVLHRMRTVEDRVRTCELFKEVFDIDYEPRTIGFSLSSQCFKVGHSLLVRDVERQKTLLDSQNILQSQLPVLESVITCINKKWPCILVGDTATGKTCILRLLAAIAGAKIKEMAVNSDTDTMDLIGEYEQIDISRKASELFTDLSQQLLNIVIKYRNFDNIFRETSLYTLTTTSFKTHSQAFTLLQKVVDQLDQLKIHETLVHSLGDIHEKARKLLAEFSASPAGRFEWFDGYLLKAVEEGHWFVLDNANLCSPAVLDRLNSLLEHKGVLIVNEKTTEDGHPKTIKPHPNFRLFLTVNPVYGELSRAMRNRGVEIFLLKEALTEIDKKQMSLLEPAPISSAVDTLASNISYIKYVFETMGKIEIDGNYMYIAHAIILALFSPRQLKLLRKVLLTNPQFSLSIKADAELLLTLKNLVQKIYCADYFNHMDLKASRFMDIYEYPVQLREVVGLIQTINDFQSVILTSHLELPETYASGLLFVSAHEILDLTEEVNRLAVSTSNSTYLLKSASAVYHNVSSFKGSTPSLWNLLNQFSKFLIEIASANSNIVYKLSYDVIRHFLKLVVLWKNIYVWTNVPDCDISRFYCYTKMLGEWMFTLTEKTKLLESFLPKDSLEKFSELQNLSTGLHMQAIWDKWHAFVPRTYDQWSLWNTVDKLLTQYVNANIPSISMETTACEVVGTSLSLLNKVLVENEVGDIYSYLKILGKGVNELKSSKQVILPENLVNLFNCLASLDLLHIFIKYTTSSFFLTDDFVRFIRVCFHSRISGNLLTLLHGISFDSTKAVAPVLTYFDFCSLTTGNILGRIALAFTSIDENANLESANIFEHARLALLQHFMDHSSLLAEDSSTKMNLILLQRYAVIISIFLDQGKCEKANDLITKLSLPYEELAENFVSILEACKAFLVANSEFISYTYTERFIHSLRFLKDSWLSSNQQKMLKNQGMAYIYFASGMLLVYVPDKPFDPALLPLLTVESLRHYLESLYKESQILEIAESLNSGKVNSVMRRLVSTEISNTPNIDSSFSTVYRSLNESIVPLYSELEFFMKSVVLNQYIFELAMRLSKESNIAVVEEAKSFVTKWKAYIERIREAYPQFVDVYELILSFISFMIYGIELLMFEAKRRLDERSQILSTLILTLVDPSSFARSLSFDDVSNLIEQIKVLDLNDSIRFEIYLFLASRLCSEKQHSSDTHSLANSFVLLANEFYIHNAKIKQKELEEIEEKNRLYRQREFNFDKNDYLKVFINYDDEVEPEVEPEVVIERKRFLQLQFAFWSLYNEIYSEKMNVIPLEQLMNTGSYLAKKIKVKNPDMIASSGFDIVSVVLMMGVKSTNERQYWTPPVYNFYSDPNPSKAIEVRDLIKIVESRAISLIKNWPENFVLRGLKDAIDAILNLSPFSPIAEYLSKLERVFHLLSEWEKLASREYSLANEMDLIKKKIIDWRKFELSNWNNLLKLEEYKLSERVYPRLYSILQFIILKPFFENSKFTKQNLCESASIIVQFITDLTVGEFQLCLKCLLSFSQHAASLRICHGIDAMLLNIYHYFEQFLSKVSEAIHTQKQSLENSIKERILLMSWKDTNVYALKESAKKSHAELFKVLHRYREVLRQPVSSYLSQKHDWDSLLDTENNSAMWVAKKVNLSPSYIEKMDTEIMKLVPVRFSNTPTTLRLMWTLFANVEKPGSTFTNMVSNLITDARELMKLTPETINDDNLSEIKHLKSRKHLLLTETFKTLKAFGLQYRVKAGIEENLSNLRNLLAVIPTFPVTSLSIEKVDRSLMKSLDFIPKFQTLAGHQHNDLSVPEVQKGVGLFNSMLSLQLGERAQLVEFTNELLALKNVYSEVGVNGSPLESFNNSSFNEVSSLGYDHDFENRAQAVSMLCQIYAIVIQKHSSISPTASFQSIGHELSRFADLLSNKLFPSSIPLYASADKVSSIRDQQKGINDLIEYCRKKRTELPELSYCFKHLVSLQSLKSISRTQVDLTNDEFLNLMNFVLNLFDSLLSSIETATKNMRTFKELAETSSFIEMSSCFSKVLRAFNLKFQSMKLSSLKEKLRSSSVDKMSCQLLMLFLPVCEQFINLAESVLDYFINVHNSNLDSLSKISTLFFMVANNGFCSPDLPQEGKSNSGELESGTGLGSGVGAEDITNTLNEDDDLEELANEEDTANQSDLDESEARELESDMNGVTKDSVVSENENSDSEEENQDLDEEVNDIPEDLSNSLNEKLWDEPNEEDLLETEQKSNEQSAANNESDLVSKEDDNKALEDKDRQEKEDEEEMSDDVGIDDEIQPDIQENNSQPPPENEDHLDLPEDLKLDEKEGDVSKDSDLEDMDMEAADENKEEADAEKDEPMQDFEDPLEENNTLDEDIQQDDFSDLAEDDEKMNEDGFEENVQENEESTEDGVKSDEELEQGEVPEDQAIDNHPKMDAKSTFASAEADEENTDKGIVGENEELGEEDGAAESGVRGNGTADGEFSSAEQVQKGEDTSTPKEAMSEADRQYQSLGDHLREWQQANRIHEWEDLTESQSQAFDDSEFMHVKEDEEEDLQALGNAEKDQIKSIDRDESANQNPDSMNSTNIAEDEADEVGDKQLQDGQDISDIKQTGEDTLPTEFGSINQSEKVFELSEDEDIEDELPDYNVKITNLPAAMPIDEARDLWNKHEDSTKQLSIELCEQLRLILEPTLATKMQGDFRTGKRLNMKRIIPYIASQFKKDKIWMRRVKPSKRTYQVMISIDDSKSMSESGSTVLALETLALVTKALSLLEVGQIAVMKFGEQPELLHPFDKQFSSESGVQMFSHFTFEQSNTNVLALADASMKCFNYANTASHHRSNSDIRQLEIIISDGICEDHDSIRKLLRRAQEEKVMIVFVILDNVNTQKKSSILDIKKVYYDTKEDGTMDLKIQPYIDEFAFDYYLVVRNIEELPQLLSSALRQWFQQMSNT

C=C(C)CSc1nnc2c(n1)[nH]c1ccccc12 [compound 1, Rbin-1]
inhibition at 1 µM [1]: ~40%

C=C(C)CSc1nnc2c(n1)[nH]c1cc(Br)ccc12 [compound 15, Rbin-2]
EC50 [2]: ~300 nM

Nc1ncnc2c1ncn2[C@@H]1O[C@H](COP(=O)(O)OP(=O)(O)OP(=O)(O)O)[C@@H](O)[C@H]1O [ATP]
ATP hydrolysis by purified enzyme (radioactive and NADH-coupled ATPase assays) [3]: ~ 1.0 s^–1 (specific activity at 1 mM MgATP)
